From ChEMBL document CHEMBL1154545, “Optimization of a series of 4,6-bis-anilino-1H-pyrrolo[2,3-d]pyrimidine inhibitors of IGF-1R: elimination of an acid-mediated decomposition pathway” (Bioorg Med Chem Lett, 2009)

Columns and labels:
[1] = Chemical stability assessed as half life in 0.1 N HCl by LC-MS; assay type: physicochemical
[2] = target: T1, Insulin-like growth factor 1 receptor (Homo sapiens, UniProt P08069)
[3] = target: T1, Insulin-like growth factor 1 receptor; remark: listed apart in the source
Description: Inhibition of IGF1R phosphorylation by cellular assay

[4] = Bioavailability in rat at 9.8 mg/kg, po; assay type: ADME, organism-based; conditions: in vivo
[5] = Clearance in rat at 2.2 mg/kg, iv or 9.8 mg/kg, po; assay type: ADME, organism-based; conditions: in vivo
Rattus norvegicus [6] = assay: Dose normalized AUC in rat at 9.8 mg/kg, po; assay type: ADME, organism-based; design: dose 9.8 mg/kg, route oral; conditions: in vivo
[7] = Bioavailability in rat at 9.2 mg/kg, po; assay type: ADME, organism-based; conditions: in vivo
[8] = Clearance in rat at 2.1 mg/kg, iv or 9.2 mg/kg, po; assay type: ADME, organism-based; conditions: in vivo
Rattus norvegicus [9] = assay: Dose normalized AUC in rat at 9.2 mg/kg, po; assay type: ADME, organism-based; design: dose 9.2 mg/kg, route oral; conditions: in vivo
[10] = target: ALK tyrosine kinase receptor (Homo sapiens, UniProt Q9UM73); assay: Inhibition of ALK
[11] = target: RAC-alpha serine/threonine-protein kinase (Homo sapiens, UniProt P31749); assay: Inhibition of AKT
[12] = target: Phosphatidylinositol 4,5-bisphosphate 3-kinase catalytic subunit alpha isoform (Homo sapiens, UniProt P42336); assay: Inhibition of PI3K

Structure (SMILES)	half-life [1] [days]	IC50 [2] [µM]	IC50 [3] [µM]	other results
COc1cc(N2CCC(N3CCN(S(C)(=O)=O)CC3)CC2)ccc1Nc1nc(Nc2ccsc2C(N)=O)c2cc[nH]c2n1	17.9	0.005	0.092	
COc1cc(N2CCN(C(C)C)CC2)ccc1Nc1nc(-n2[nH]c(=O)c3ccccc32)c2cc[nH]c2n1		0.006	0.546	
COc1cc(N2CCN(C(C)C)CC2)ccc1Nc1nc(N2CCc3ccccc32)c2cc[nH]c2n1		0.01	1.77	
COc1cc(N2CCN(C(C)C)CC2)ccc1Nc1nc(Nc2ccccc2OC)c2cc[nH]c2n1		0.032	0.982	
COc1cc(N2CCN(C(C)C)CC2)ccc1Nc1nc2[nH]ccc2c2nc3cccc(F)c3c(=O)n12		0.0079	30	bioavailability [4]: 81%; clearance [5]: 47 mL/min/kg; AUC (Rattus norvegicus [6]): 18 ng·h/mL/mg/kg
CNC(=O)c1cscc1Nc1nc(Nc2cc3c(cc2OC)CCN3C(=O)CN(C)C)nc2[nH]ccc12	16.2	0.002	0.025	
COc1cc(N2CCN(C(C)C)CC2)ccc1Nc1nc(Nc2ccc3ncccc3c2)c2cc[nH]c2n1		0.013	0.773	
COc1cc(N2CCN(C(C)C)CC2)ccc1Nc1nc(Nc2cccc3c2NCC3)c2cc[nH]c2n1		0.4	1.69	
COc1cc2c(cc1Nc1nc(Nc3cccc(F)c3C(N)=O)c3cc[nH]c3n1)N(C(=O)CN(C)C)CC2	0.0833	0.001	0.054	
COc1cc(N2CCN(C(C)C)CC2)ccc1Nc1nc(Nc2ccccc2-n2cccn2)c2cc[nH]c2n1		0.025	0.654	
COc1cc(N2CCN(C(C)C)CC2)ccc1Nc1nc(Nc2ccc(F)c(F)c2C(N)=O)c2cc[nH]c2n1	0.708	0.0013		
COc1cc(N2CCN(C(C)C)CC2)ccc1Nc1nc(Nc2cccc(F)c2C(N)=O)c2cc[nH]c2n1	0.708	0.002	0.117	bioavailability [7]: 65%; clearance [8]: 51 mL/min/kg; AUC (Rattus norvegicus [9]): 156 ng·h/mL/mg/kg
COc1cc(N2CCN(CC(C)C)CC2)ccc1Nc1nc(Nc2ccccc2C#N)c2cc[nH]c2n1		0.079	2.74	
COc1cc(N2CCN(C(C)C)CC2)ccc1Nc1nc(Nc2ccsc2C(N)=O)c2cc[nH]c2n1	> 41.7	0.0016	0.106	
COc1cc2c(cc1Nc1nc(Nc3ccsc3C(N)=O)c3cc[nH]c3n1)N(C(=O)CN(C)C)CC2	10.4			IC50 [10]: 0.0004 µM
COc1cc2c(cc1Nc1nc(Nc3ccoc3C(N)=O)c3cc[nH]c3n1)N(C(=O)CN(C)C)CC2	> 41.7			
CCCN1CCC(c2ccc(Nc3nc(Nc4ccsc4C(N)=O)c4cc[nH]c4n3)c(OC)c2)CC1	38.3	0.0013	0.052	
COc1cc(N2CCN(C(C)C)CC2)ccc1Nc1nc(Nc2ccc(F)cc2C(N)=O)c2cc[nH]c2n1 [GSK-1220512A]	0.0833	0.0009		
COc1cc(N2CCN(C(C)C)CC2)ccc1Nc1nc(Nc2cccc3ncccc23)c2cc[nH]c2n1 [GSK-1511931A]		0.25	2.53	
COc1cc(N2CCN(C(C)C)CC2)ccc1Nc1nc(Nc2cccc(F)c2C(=O)O)c2cc[nH]c2n1 [GSK-1819799A]				bioavailability [4]: 0%; clearance [5]: > 200 mL/min/kg; AUC (Rattus norvegicus [6]): 0 ng·h/mL/mg/kg

Further lines, with some results ahead:

half-life [1] [days]	IC50 [2] [µM]	IC50 [3] [µM]	Structure (SMILES)	other results
> 41.7	0.0005	0.015	COc1cc2c(cc1Nc1nc(N3CCc4ccccc43)c3cc[nH]c3n1)N(C(=O)CN(C)C)CCC2	
> 41.7	0.0003	0.009	COc1cc2c(cc1Nc1nc(Nc3ccoc3C(N)=O)c3cc[nH]c3n1)N(C(=O)CN(C)C)CCC2	
1.12	0.0005	0.018	COc1cc2c(cc1Nc1nc(Nc3cccnc3C(N)=O)c3cc[nH]c3n1)N(C(=O)CN(C)C)CCC2	
0.167	0.0007		COc1cc(N2CCN(C(C)C)CC2)ccc1Nc1nc(Nc2cc(F)ccc2C(N)=O)c2cc[nH]c2n1	
1.62	0.0008		COc1cc(N2CCN(C(C)C)CC2)ccc1Nc1nc(Nc2cc(F)cc(F)c2C(N)=O)c2cc[nH]c2n1	
0.625	0.0007	0.038	COc1cc2c(cc1Nc1nc(Nc3cccnc3C(N)=O)c3cc[nH]c3n1)N(C(=O)CN(C)C)CC2	
> 41.7	0.0008	0.016	COc1cc2c(cc1Nc1nc(Nc3cccc4c3C(=O)NC4)c3cc[nH]c3n1)N(C(=O)CN(C)C)CC2	IC50 [11]: 0.0025 µM; IC50 [12]: 0.0008 µM
34.6	< 0.0002	0.006	COc1cc2c(cc1Nc1nc(Nc3ccsc3C(N)=O)c3cc[nH]c3n1)N(C(=O)CN(C)C)CCC2 [GSK-2110236A]	
30	0.0002	< 0.002	COc1cc2c(cc1Nc1nc(Nc3ccsc3C(N)=O)c3cc[nH]c3n1)N(C(=O)CN(C)C)CCC2(C)C [GSK-2163632A]	
> 41.7	0.0008	0.16	COc1cc2c(cc1Nc1nc(N3CCc4ccccc43)c3cc[nH]c3n1)N(C(=O)CN(C)C)CC2 [GSK-2186269A]	
